Measured values reported in ChEMBL document CHEMBL1131720, “Phosphofurylalanine, a stable analog of phosphohistidine” (Bioorg Med Chem Lett, 1999).

Assays:
[1] = Kinetic resolution using alpha-chymotrypsin, 375 U.mL e-1 at 72 hr expressed as percent ee unreacted; assay type: ADME
Equus caballus = species: Equus caballus; experiment: Kinetic resolution using horse liver esterase, 3 U.mL e-1 at 48 hr expressed as percent ee unreacted; assay type: ADME, organism-based; conditions: in vivo
[2] = Kinetic resolution using papain, 170 U.mL e-1 at 24 hr expressed as percent ee unreacted; assay type: ADME
Sus scrofa = species: Sus scrofa; experiment: Kinetic resolution using pig liver esterase, 240 U.mL e-1 at 48 hr expressed as percent ee unreacted; assay type: ADME, organism-based; conditions: in vivo

Row | Unreacted drug [1] [%] | Unreacted drug (Equus caballus) [%] | Unreacted drug [2] [%] | Unreacted drug (Sus scrofa) [%] | SMILES
1 | 0 | 60 | > 96 | 70 | CCOC(=O)[C@@H](Cc1cc(P(=O)(OCC)OCC)co1)NC(=O)OC(C)(C)C
2 |  | 50 | 75 | 60 | CCOP(=O)(OCC)c1coc(C[C@H](NC(=O)OC(C)(C)C)C(=O)O)c1
